{
  "source": "paper PMC4849045",
  "about": "“Hepatoprotective Limonoids from Andiroba (Carapa guianensis)” (International Journal of Molecular Sciences, 2016)",
  "key": {"[1]": {"test_system": "D-GalN/LPS-induced liver injury in mice", "set-up": "method as in PMID 24697904", "details": "p.o., cited from earlier work; for Mortality: dead/total; for sALT / sAST: mean ± S.E.M."}, "[2]": {"test_system": "primary cultured mouse hepatocytes", "details": "cited from earlier work; for Inhibition (%) of D-GalN-induced cytotoxicity: mean ± S.E.M. (n = 4)"}, "[3]": {"test_system": "D-GalN/LPS-induced liver injury in mice", "test": "D-GalN/LPS-induced liver injury in mice", "assay_type": "in vivo, mouse", "details": "500 mg/kg, p.o.", "protocol": "Male ddY mice (Kiwa Laboratory Animal Co., Ltd., Wakayama, Japan) were housed at a constant temperature of 23 ± 2°C and were fed a standard laboratory chow (MF, Oriental Yeast Co., Ltd., Tokyo, Japan). The animals were fasted for 24 h prior to the beginning of the experiment but were allowed free access to tap water. All experiments were performed with conscious mice unless otherwise noted. The experimental protocol was approved by the Experimental Animal Research Committee of Kindai University (KAPR-26-001, 1 April 2014).\nThe method described by Tiegs et al. was modified and used for this study. Curcumin [36] and silybin were used as reference compounds."}, "L929 cells": {"test_system": "L929 cells", "set-up": "method as in PMID 24697904", "details": "cited from earlier work; for Inhibition (%) of TNF-α-induced cytotoxicity: mean ± S.E.M. (n = 4)"}},
  "note": "Like-named read-outs stand apart in the source and are kept apart here.",
  "data": [
    {"smiles": "COc1cc(/C=C/C(=O)CC(=O)/C=C/c2ccc(O)c(OC)c2)ccc1O", "note": "[Curcumin, curcumin]", "values": [
      {"measurement": "sALT Inhibition (%)", "setting": "[1]; 12.5 mg/kg", "result": 24.0, "unit": "%"},
      {"measurement": "sAST Inhibition (%)", "setting": "[1]; 12.5 mg/kg", "result": 21.1, "unit": "%"},
      {"measurement": "Mortality", "setting": "[1]; 12.5 mg/kg", "result": "0/10"},
      {"measurement": "sALT", "setting": "[1]; 12.5 mg/kg", "result": "5024 ± 1189", "unit": "Karmen Unit"},
      {"measurement": "sAST", "setting": "[1]; 12.5 mg/kg", "result": "4770 ± 1218", "unit": "Karmen Unit"},
      {"measurement": "sALT Inhibition (%)", "setting": "[1]; 25 mg/kg", "result": 50.9, "unit": "%"},
      {"measurement": "sAST Inhibition (%)", "setting": "[1]; 25 mg/kg", "result": 47.8, "unit": "%"},
      {"measurement": "Mortality", "setting": "[1]; 25 mg/kg", "result": "0/10"},
      {"measurement": "sALT", "setting": "[1]; 25 mg/kg", "result": "3253 ± 981", "unit": "Karmen Unit"},
      {"measurement": "sAST", "setting": "[1]; 25 mg/kg", "result": "3177 ± 979", "unit": "Karmen Unit"},
      {"measurement": "sALT Inhibition (%)", "setting": "[1]; 50 mg/kg", "result": 71.2, "unit": "%"},
      {"measurement": "sAST Inhibition (%)", "setting": "[1]; 50 mg/kg", "result": 63.8, "unit": "%"},
      {"measurement": "Mortality", "setting": "[1]; 50 mg/kg", "result": "1/10"},
      {"measurement": "sALT", "setting": "[1]; 50 mg/kg", "result": "1916 ± 483", "unit": "Karmen Unit"},
      {"measurement": "sAST", "setting": "[1]; 50 mg/kg", "result": "2220 ± 563", "unit": "Karmen Unit"},
      {"measurement": "Inhibition (%) of D-GalN-induced cytotoxicity", "setting": "[2]; 3 µM", "result": "0.1 ± 3.8", "unit": "%"},
      {"measurement": "Inhibition (%) of D-GalN-induced cytotoxicity", "setting": "[2]; 10 µM", "result": "1.1 ± 2.2", "unit": "%"},
      {"measurement": "Inhibition (%) of D-GalN-induced cytotoxicity", "setting": "[2]; 30 µM", "result": "−17.7 ± 1.3", "unit": "%"},
      {"measurement": "Inhibition (%) of D-GalN-induced cytotoxicity", "setting": "[2]; 100 µM", "result": "−44.3 ± 0.3", "unit": "%"},
      {"measurement": "Reduction of D-GalN-induced cytotoxicity (in words)", "setting": "[2]; concentrations of up to 100 μM", "result": "did not reduce D-GalN-induced cytotoxicity"}
    ]},
    {"smiles": "COc1cc(C2Oc3cc([C@H]4Oc5cc(O)cc(O)c5C(=O)[C@@H]4O)ccc3OC2CO)ccc1O", "note": "(some centres unmarked) [Silybin, silybin]", "values": [
      {"measurement": "sALT Inhibition (%)", "setting": "[3]", "result": 71.9, "unit": "%"},
      {"measurement": "sAST Inhibition (%)", "setting": "[3]", "result": 71.1, "unit": "%"},
      {"measurement": "Mortality", "setting": "[3]; dead/total", "result": "0/8"},
      {"measurement": "sALT", "setting": "[3]; mean ± S.E.M.", "result": "1990 ± 439", "unit": "Karmen Unit"},
      {"measurement": "sAST", "setting": "[3]; mean ± S.E.M.", "result": "1361 ± 191", "unit": "Karmen Unit"},
      {"measurement": "Inhibition (%) of TNF-α-induced cytotoxicity", "setting": "L929 cells; 3 µM", "result": "5.3 ± 2.8", "unit": "%"},
      {"measurement": "Inhibition (%) of TNF-α-induced cytotoxicity", "setting": "L929 cells; 10 µM", "result": "22.0 ± 3.8", "unit": "%"},
      {"measurement": "Inhibition (%) of TNF-α-induced cytotoxicity", "setting": "L929 cells; 30 µM", "result": "48.0 ± 4.1", "unit": "%"},
      {"measurement": "Inhibition (%) of TNF-α-induced cytotoxicity", "setting": "L929 cells; 100 µM", "result": "50.8 ± 3.9", "unit": "%"},
      {"measurement": "IC50", "setting": "L929 cells; L929 cells, read-out: IC50, inhibition of TNF-α-induced decrease in cell viability", "result": 37.2, "unit": "µM"},
      {"measurement": "Inhibition (%) of D-GalN-induced cytotoxicity", "setting": "[2]; 3 µM", "result": "4.8 ± 1.1", "unit": "%"},
      {"measurement": "Inhibition (%) of D-GalN-induced cytotoxicity", "setting": "[2]; 10 µM", "result": "7.7 ± 0.7", "unit": "%"},
      {"measurement": "Inhibition (%) of D-GalN-induced cytotoxicity", "setting": "[2]; 30 µM", "result": "45.2 ± 8.8", "unit": "%"},
      {"measurement": "Inhibition (%) of D-GalN-induced cytotoxicity", "setting": "[2]; 100 µM", "result": "77.0 ± 5.5", "unit": "%"},
      {"measurement": "IC50", "setting": "[2]; primary mouse hepatocytes, read-out: IC50, inhibition of D-GalN-induced cytotoxicity", "result": 38.8, "unit": "µM"}
    ]}
  ]
}
